≈ marks a conversion by molar mass, not a printed value. Read-outs that look alike come from different tables or passages of the source.
Legend:
[1] = in a solution; cited from earlier work
[2] = Solubility test (saturation in distilled water, liquid chromatography); assay type: physicochemical; conditions: for Solubility: distilled water to saturation, based on the amount of amlodipine
Experimental: The measurement was performed according to the procedure described in the Korean Pharmacopoeia (Korean Ministry of Health and Welfare, General principle of medical supplies, Vol. 1, Clause 29, the 7th revision) which comprises the steps of dissolving each compound in distilled water to saturation, analyzing the saturated solution with liquid chromatography, and measuring the dissolved amount of each compound based on the amount of amlodipine.

[3] = Stability test (storage at 55° C., about 50% relative humidity); assay type: physicochemical; parameters: remaining amount of active amlodipine: unit not given here; conditions: relative humidity about 50%; for time-dependent stability (in words): up to 4 weeks
Experimental: Specifically, each compound was stored at 55° C., a relative humidity of about 50%, and after 1, 2, 3 and 4 weeks, the remaining amount of active amlodipine was determined with a liquid chromatography.

[4] = Non-hygroscopicity test (moisture content); assay type: physicochemical; conditions: for moisture content, Condition 2: 30° C. under 95% relative humidity for 3 days; for moisture content, Condition 1: 37° C. under 75% relative humidity for 24 hours; for Initial moisture: before exposure
Experimental: When a solid form of a drug is to be formulated, it is important that the drug is not hygroscopic. Accordingly, the hygroscopicity of the inventive amlodipine camsylate was measured and compared with that of amlodipine besylate.
Each compound was exposed to two conditions: 37° C. under 75% relative humidity for 24 hours (condition 1) and 30° C. under 95% relative humidity for 3 days (condition 2), and then, the moisture content of each compound was measured according to the method described in Korean Patent Publication No. 1995-7228.

Rat = conditions: oral; cited from earlier work
Cat = conditions: cutaneous; cited from earlier work
Wild-birds = conditions: oral; cited from earlier work
Quail = conditions: oral; cited from earlier work
Mouse = conditions: in vivo, sc; cited from earlier work

Compound	remaining amount of active amlodipine ([3]; 1 week)	remaining amount of active amlodipine ([3]; 2 weeks)	remaining amount of active amlodipine ([3]; 3 weeks)	remaining amount of active amlodipine ([3]; 4 weeks)	remaining amount of active amlodipine ([3]; Initial)	moisture content, Condition 2 [4] [%]	moisture content, Condition 1 [4] [%]	Initial moisture [4] [%]	also measured
amlodipine maleate	–	–	–	–	–	–	–	–	stability in solution (in words) [1]: degrades in a solution within several weeks
CCOC(=O)C1=C(COCCN)NC(C)=C(C(=O)OC)C1c1ccccc1Cl (stereo not drawn) [Amlodipine besylate, amlodipine benzenesulfonate, reference compound]	0.992	0.996	0.993	0.993	1	0.15	0.05	0.05	Solubility ([2]; distilled water, water, thermodynamic from solid, read-out: Solubility): 1400 µg/mL; time-dependent stability (in words) [3]: slight but significant degradation after 1 week
CCOC(=O)C1=C(COCCN)NC(C)=C(C(=O)OC)C1c1ccccc1Cl [Amlodipine camsylate of Example 1 (S), Amlodipine Camsylate]	1	0.998	1	1	1	0.15	0.05	0.05	Solubility [2]: 1225 µg/mL (≈ 3 mM); Saturation pH ([2]; saturated solution in distilled water): 6.0
CCOC(=O)C1=C(COCCN)NC(C)=C(C(=O)OC)C1c1ccccc1Cl (stereo not drawn) [Amlodipine camsylate, amlodipine camsylate]	–	–	–	–	–	–	–	–	time-dependent stability (in words) [3]: stable during the 4 weeks period
O=S(=O)(O)c1ccccc1 [Benzene sulfonic acid]	–	–	–	–	–	–	–	–	LD50 (Rat): LD50 890 μl/kg; LDLO (Cat): LDLO 10 g/kg; LD50 (Wild-birds): LD50 75 mg/kg
CC1(C)C2CCC1(CS(=O)(=O)O)C(=O)C2 (racemic) [(±)-10-Camphor sulfonic aicd, (±)-10-camphor sulfonic acid]	–	–	–	–	–	–	–	–	LD50 (Quail): LD50 > 316 mg/kg
CC1(C)C2CC[C@@]1(CS(=O)(=O)O)C(=O)C2 [(1S)-(+)-10-Camphor sulfonic acid, (1S)-(+)-10-camphor sulfonic acid]	–	–	–	–	–	–	–	–	LD50 (Mouse): LD50 2502 mg/kg
CCOC(=O)C1=C(COCCN)NC(C)=C(C(=O)OC)C1c1ccccc1Cl [Amlodipine camsylate of Example 2 (R), Amlodipine Camsylate]	1	1	1.002	1	1	0.15	0.05	0.05	Solubility [2]: 1250 µg/mL (≈ 3.06 mM)

— US6936625B2 (Hanmi Pharm. Co., Ltd., priority 2001, dated 2005)
